From US8592460B2, “Amino-pyridine derivatives as S1P1 /EDG1 receptor agonists” (Actelion Pharmaceuticals Ltd., priority 2007, dated 2013)

These molecules were tested on circulating lymphocytes (assay: Assessment of in vivo efficacy: circulating lymphocytes after oral administration). Settings: 6 h after oral administration of 10 mg/kg to normotensive male Wistar rats, compared to vehicle-treated group; mean ± SEM.
Parameters: species or system rat
Experimental: The efficacy of the compounds of formula (I) is assessed by measuring the circulating lymphocytes after oral administration of 3 to 30 mg/kg of a compound of formula (I) to normotensive male Wistar rats. The animals are housed in climate-controlled conditions with a 12 h-light/dark cycle, and have free access to normal rat chow and drinking water. Blood is collected before and 3, 6 and 24 h after drug administration. Full blood is subjected to hematology using Advia Hematology system (Bayer Diagnostics, Zurich, Switzerland).
All data are presented as mean±SEM. Statistical analyses are performed by analysis of variance (ANOVA) using Statistica (StatSoft) and the Student-Newman-Keuls procedure for multiple comparisons. The null hypothesis is rejected when p<0.05.
Lymphocyte counts 6 h after oral administration have been measured for 39 of the 258 exemplified compounds and are in the range of −82% to −48% with an average of −65%.

SMILES | Lymphocyte counts
CCc1cc(-c2nc(-c3cc(C)nc(N(CC)CC)c3)no2)cc(C)c1OC[C@@H](O)CNC(=O)CO [Example 80, N—((S)-3-{4-[3-(2-diethylamino-6-methyl-pyridin-4-yl)-[1,2,4]oxadiazol-5-yl]-2-ethyl-6-methyl-phenoxy}-2-hydroxy-propyl)-2-hydroxy-acetamide] | −68 ± 2%
COc1cc(-c2noc(-c3cc(C)nc(N(C)C(C)C)c3)n2)cc(Cl)c1OC[C@@H](O)CO [Example 149, (S)-3-(2-chloro-4-{5-[2-(isopropyl-methyl-amino)-6-methyl-pyridin-4-yl]-[1,2,4]oxadiazol-3-yl}-6-methoxy-phenoxy)-propane-1,2-diol] | −82 ± 2%
CCc1cc(-c2nnc(-c3cc(C)nc(N(CC)CC)c3)s2)cc(C)c1OC[C@@H](O)CNC(=O)CO [Example 94, N—((S)-3-{4-[5-(2-diethylamino-6-methyl-pyridin-4-yl)-[1,3,4]thiadiazol-2-yl]-2-ethyl-6-methyl-phenoxy}-2-hydroxy-propyl)-2-hydroxy-acetamide] | −75 ± 6%
CCc1cc(-c2noc(-c3cc(C)nc(N4CCCC4)c3)n2)cc(C)c1OC[C@@H](O)CNC(=O)CO [Example 188, N—((S)-3-{2-ethyl-6-methyl-4-[5-(2-methyl-6-pyrrolidin-1-yl-pyridin-4-yl)-[1,2,4]oxadiazol-3-yl]-phenoxy}-2-hydroxy-propyl)-2-hydroxy-acetamide] | −76 ± 1%
CCc1cc(-c2noc(-c3cc(C)nc(N(C)C(C)C)c3)n2)cc(C)c1OC[C@@H](O)CO [Example 24, (S)-3-(2-Ethyl-4-{5-[2-(isopropyl-methyl-amino)-6-methyl-pyridin-4-yl]-[1,2,4]oxa-diazol-3-yl}-6-methyl-phenoxy)-propane-1,2-diol] | −72 ± 1%
